Measurements: patent US20250090498A1, “TREATMENT OF PRIMARY CTLA-4 CHECKPOINT RELATED IMMUNODEFICIENCIES” (ADIENNE PHARMA & BIOTECH SA, priority 2023, published 2025)
Entries after “also recorded” stand apart in the source; their conditions may differ. Read-outs that look alike come from different tables or passages of the source.

What was measured:
AhR [1] = target: T1, AhR (Homo sapiens, UniProt P35869); assay: AhR-dependent genes in vitro in cell lines (data not shown); assay type: cell-based; design: host or cells: unnamed cell lines; settings: preliminary
T1 sequence (P35869 11-848): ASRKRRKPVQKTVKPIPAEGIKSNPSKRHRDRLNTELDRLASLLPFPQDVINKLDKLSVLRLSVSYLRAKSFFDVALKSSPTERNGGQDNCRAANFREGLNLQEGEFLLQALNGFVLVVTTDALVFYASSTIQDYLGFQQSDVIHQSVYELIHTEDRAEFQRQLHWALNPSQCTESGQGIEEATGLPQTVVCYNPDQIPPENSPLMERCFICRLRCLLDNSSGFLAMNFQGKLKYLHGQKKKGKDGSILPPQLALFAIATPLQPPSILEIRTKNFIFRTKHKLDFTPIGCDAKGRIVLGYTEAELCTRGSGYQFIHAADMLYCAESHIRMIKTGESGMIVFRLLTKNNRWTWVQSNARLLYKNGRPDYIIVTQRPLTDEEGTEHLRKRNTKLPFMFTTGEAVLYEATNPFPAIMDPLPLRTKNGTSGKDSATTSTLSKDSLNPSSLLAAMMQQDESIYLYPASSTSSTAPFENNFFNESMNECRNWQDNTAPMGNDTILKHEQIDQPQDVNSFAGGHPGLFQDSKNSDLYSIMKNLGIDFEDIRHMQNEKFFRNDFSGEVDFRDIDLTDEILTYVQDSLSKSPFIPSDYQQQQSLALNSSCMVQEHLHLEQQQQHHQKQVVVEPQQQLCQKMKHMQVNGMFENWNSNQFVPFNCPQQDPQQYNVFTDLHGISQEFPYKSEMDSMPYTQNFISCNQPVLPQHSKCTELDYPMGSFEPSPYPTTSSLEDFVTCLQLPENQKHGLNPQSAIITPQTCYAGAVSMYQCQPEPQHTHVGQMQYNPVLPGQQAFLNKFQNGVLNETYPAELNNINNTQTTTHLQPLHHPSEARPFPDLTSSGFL
Protocol: Specifically, the oxidated form of 3-IAld (indole-3-formic acid), and methylated forms of indole-3-formic acid, were detected following administration of labelled 3-IAld. For example, 1-Methylindole-3-carboxylic acid was detected with the same kinetics of indole-3-formic acid, with peak levels at 30 min (FIGS. 13C and 13D). Few studies have been performed assessing the biological activities of methylindoles and methoxyindoles as aryl hydrocarbon receptor (AhR) activators.

[2] = preliminary pharmacokinetics in serum after Eudragit-formulated 3-IAld (90% 3-IAld/10% 13C8-labeled 3-IAld), mass spectrometry; assay type: in vivo
Protocol: Primary pharmacodynamics studies have been performed. The mode of action of 3-IAld occurs upon binding to AhR, both in vitro and in vivo. In vitro, 3-IAld induced luciferase activity in the H1L1.1c2 cell line containing a stably-transfected AhR-responsive firefly luciferase at the dose range […] (Zelante et al, 2013). […] Preliminary pharmacokinetics data have been obtained by administration of Eudragit-formulated 3-IAld in the composition 90% 3-IAld/10% 13C8-labeled 3-IAld and targeted/untargeted analysis by mass spectrometry in serum at different times (30 minutes (min), 1 hour (h), 2 h, 4.5h, 6 h, 24h). […] The presence of indole-3-formic acid was also confirmed with labelled 3-IAld (FIG. 13E), showing a similar kinetics and a peak level of about 25 μM at 30 min.

[3] = toxicology, up to 3 weeks, PAS tissue pathology in C57BL/6 mice; assay type: in vivo; settings: 0.36-0.18-0.09 mg/mouse intragastrically, enteric microparticles
Protocol: For assess toxicology, C57BL/6 mice received intragastrically escalating doses of 0.36-0.18-0.09 mg/mouse of 3-IAld or 1ME3CA formulated in enteric microparticles for up to 3 weeks as shown in Table 3 below. At the end of treatment, mice were sacrificed, and tissue pathology blindly examined on different organs after PAS staining of different section from each organ. Sections of organs from 4 mice in each group were separately evaluated.

[4] = system: pathology after chronic treatment with anti-CTLA-4 monoclonal antibody; assay: chronic anti-CTLA-4 treatment in 16 wk-old Il10−/− mice, without DSS; assay type: in vivo
From the text: Animals were monitored daily for body weight, disease activity index, clinical inspection, inflammatory pathology in the ileum and colon, epithelial barrier function and immunological parameters of inflammation. […] Consistent with the extensive T cells infiltration in different organs observed in CTLA-4 haploinsufficiency (Kuehn et al, 2014; Schubert et al, 2014; […] No lymphocytic infiltration or immunopathology were detected in organs, such as the spleens and kidneys (data not shown).

[5] = enteric microparticles; cited from earlier work
AhR [6] = settings: cited from earlier work
[7] = toxicology, 3 weeks, H&E tissue pathology in naive C57BL/6 and AhR−/− mice; assay type: in vivo; settings: Eudragit-formulated, intragastrically every other day for 3 weeks, two concentrations
From the text: Eudragit-formulated 3-IAld (Puccetti et al, 2018) was given intragastrically every other day, at the doses indicated for 3 weeks to naive C57BL/6 and AhR−/− mice. At the end of treatment, mice were sacrificed, and tissue pathology blindly examined on different organs after Hematoxylin and Eosin (H&E) staining.

[8] = system: graft-versus-host disease (GvHD); settings: mouse, in vivo; cited from earlier work
immune-mediated colitis = immune-mediated colitis in Rag1−/− mice infused with CD4+ T cells and treated with anti-CTLA-4 mAb; assay type: in vivo
Protocol: Immunodeficient Rag1^−/− mice reconstituted with naïve CD4^+ T cells and treated with anti-CTLA-4 monoclonal antibody. Rag1−/− mice, mice homozygous for the RagltmlMom mutation produce no mature T cells or B cells. Their phenotype can be described as a “non-leaky” immune deficiency. Rag1−/− 8-10 weeks old mice were injected intraperitoneally with 4×10^5 naïve CD4^+ T cells purified from spleens of C57BL/6 mice and treated with anti-CTLA-4 mAb or control IgG the day after T-cell reconstitution and then at days 0, 4, 8, 12, and 16. […] Mice were monitored daily for overall mortality and body weight loss and sacrificed on day 21.

[9] = system: pathology after acute treatment with anti-CTLA-4 monoclonal antibody; assay: acute anti-CTLA-4 treatment in 8-10 week-old Il10−/− mice, without DSS; assay type: in vivo
Protocol: Il10^−/− mice were treated with anti-CTLA-4 monoclonal antibody and 3-IAld alone, as above (FIG. 6), without DSS. Animals were monitored daily for body weight and inflammatory pathology in the colon and sacrificed at 14 days after the first anti-CTLA-4 monoclonal antibody administration.

## Cn1cc(C(=O)O)c2ccccc21 [1-methylindole-3-carboxylic acid, 1-Methyl-1H-indole-3-carboxylic acid]
AhR [1]
  activation of AhR-dependent genes: activated AhR-dependent genes in a dose-dependent manner
[2]; same kinetics as indole-3-formic acid
  time of peak levels as metabolite of 3-IAld: 30 min
[3]
  tissue pathology in different organs (PAS): absence of visible tissue pathology

## O=Cc1c[nH]c2ccccc12 [3-IAld, 1H-indole-3-carbaldehyde]
[4]; 3-IAld, chronic schedule
  cytotoxic effects / pathology induced by CTLA-4 blockade (overall): effective; also recorded: protects
[4]; ileum, colon, lung and liver, anti-CD3 staining
  CD3+ T cell (lymphocytic) infiltration: significantly reduced; also recorded: reduces lymphocytic infiltration
[5]
  inflammatory histopathology and barrier function: improved
[2]; in vivo
  labelled 3-IAld serum level at 2 h: sharply reduced levels
  metabolic conversion: rapid metabolic conversion
  time of peak of labelled 3-IAld in serum: 30 to 60 min
AhR [6]; as printed in b215
  dose range inducing luciferase activity: 0.1 to 100 mM
AhR [6]; as printed in b238
  dose range inducing luciferase activity: 0.0001 to 0.1 mM
[3]
  tissue pathology in different organs (PAS): absence of visible tissue pathology
[7]
  tissue pathology in different organs (H&E): absence of visible tissue pathology
[8]
  gut epithelial damage: limited
  inflammatory cytokine production: decreased
  transepithelial bacterial translocation: reduced
immune-mediated colitis; 3-IAld 18 mg/kg
  progression of immune-mediated colitis (overall): limits progression
immune-mediated colitis; 3-IAld 18 mg/kg intragastrically every other day, 21 days
  weight loss: reduced
immune-mediated colitis; 3-IAld 18 mg/kg, day 21
  colon histopathology: improved
  gross pathology: improved
[9]; 3-IAld
  pathology after acute anti-CTLA-4 treatment (overall): protects
[9]; 3-IAld as in the DSS model, 14 days
  body weight loss: prevented
[9]; 3-IAld, 14 days
  inflammatory pathology (colon): ameliorated
  massive cellular infiltrate (submucosa): reducing
